Legend:
[1] = test system: spinal cord GABAA receptors
Experimental: A study was performed on five rats. Alphadolone ([…]) was suspended in normal saline. The five rats were randomised to receive on two different occasions on two different days either […]. This was a cross-over study such that on the following occasion if a rat had received vehicle on the first occasion then it received alphadolone on the second occasion and vice versa. This dosing was randomised and the observer making measurements of pain thresholds was blinded to the nature of the drug given to these rats. In each experiment, the electrical current threshold in the neck and the tail were measured every five minutes until three stable readings were obtained. Then either vehicle or alphadolone 750 mg per kg suspended in saline was instilled into the stomach via an oesophageal needle. Five minutes later and every five minutes thereafter, electrical current thresholds for nociception were measured in the skin of the tail and neck At 60 minutes 10 pmol of bicuculline in 5 μl 6% dextrose was injected intrathecally down a Portex catheter that had been implanted previously in the lumbar sub arachnoid space to lie adjacent to the most caudal segments of spinal cord responsible for tail innervation.

[2] = test system: spinal cord GABAA receptors; assay type: in vivo, rat
Description: Groups of 10 rats were examined for the duration of the loss of righting reflex and loss of coordination in the rotarod test and also for antinociceptive effects in the electrical current threshold test measured in the tail. […] Thus we were able to compare the duration of sedation and anaesthesia and quantity of antinociception following intraperitoneal administration of the neurosteroid mixture and also following the components of the mixture at the doses which were given when the combination was used.
Rats were given a range of doses of alphadolone from 0.1 to 100 mg/kg intraperitoneally. The antinociceptive effect was measured using electrical current in the tail.

[3] = test system: patients scheduled for knee reconstruction surgery; assay: Phase 1 study of oral alphadolone after knee reconstruction surgery: pain scores, PCA morphine consumption, CPM; assay type: in vivo, human; details: for morphine consumption from the PCA machine vs total range of placebo patients: single patients at 100, 250 and 500 mg orally
Description: A pilot clinical study entitled “Investigation of the analgesic properties of alphadolone acetate administered orally to man—a dose escalation and efficacy study” was submitted to Monash Medical Centre Human Research and Ethics Committee A. It was approved and registered with the Therapeutics Goods Administration it Canberra under the Clinical Trials Notification (CTN) scheme. This was a small pilot study of phase 1 type design but incorporating some randomisation and placebo control because of the nature of the measurements, i.e. subjective pain measurements. The study was performed prospectively, one in three patients randomised to receive placebo formulation (lactose) and double-blind i.e. neither the patient nor the observer (a research anaesthetic registrar) were aware of the nature of the treatment, placebo or alphadolone.
The study consisted of two phases. The first phase was a dose escalation study. At any time during this phase as well as the second phase, if the patient was randomised to receive placebo then a capsule containing lactose was administered orally at the time of medication. If the patient was randomised to receive alphadolone then the first patient so randomised received 25 mg alphadolone acetate orally. The patient was monitored for efficacy of the medication and side effects. If there were no unacceptable side effects such as respiratory depression or severe sedation or disorientation then the next patient randomised to receive the active treatment received a higher dose. The dose escalation planned was in the order, 25, 50, 100, 250, 500 and 1000 mg. The original plan was to continue dose escalation until unacceptable side effects occurred and then to reduce the dose to go onto the next, second, phase of the study, a double-blind comparison of the dose just below the high dose that produced unacceptable side effects compared with placebo. However, the view of the Ethics Committee was that this was more appropriate to a drug company sponsored trial and they ordered that the trial should switch from the dose escalation phase to the comparison phase when there was clear evidence of efficacy.
Thus in the second phase of the study, a double-blind comparison of 250 mg of alphadolone with placebo was carried out. Patient 8, 10, 13 and 14 received 250 mg of alphadolone and patient 9, 11 and 12 received placebo.
14 patients scheduled for knee reconstruction surgery were recruited to this study. On the day prior to surgery for morning surgical patients or on the morning prior to afternoon surgery in those patients scheduled for afternoon lists, written informed consent was obtained from the patients after inclusion and exclusion criteria were met. The patient had to be ASA class 1 or 2, between 18 and 70 years, not using regular analgesics apart from paracetamol and non-steroid anti-inflammatory drugs. These were withheld on the day of surgery. The patient also had to have no renal, hepatic or respiratory disease other than mild asthma and could not be pregnant. No epidural/spinal/knee local anaesthetic or opioid injections were allowed. All patients had to receive post-operative morphine from a patient controlled analgesia device. After obtaining informed consent the patients were then given an opportunity to familiarise themselves with the PCA machine and also practice completing the visual analogue and verbal rating scales used for post-operative assessments.
No premedication was given. The patients were taken to the operating theatre and subjected to a standardised anaesthetic regime that consisted of a propofol induction followed by a propofol infusion and the muscle relaxant of the anaesthetist's preference The trachea was intubated and lungs ventilated with a mixture of nitrous oxide and oxygen. Morphine 1-2 mg intravenously was given as indicated by normal signs of depth of anaesthesia. The amount of morphine used in the operating theatre was recorded in the case record form. […]

[4] = Plasma alphadolone and glucuronide metabolite levels after oral capsule; assay type: in vivo, human
Experimental: The patients who had alphadolone administered orally to them, had blood samples taken at time 0, the time of drug administration, and at ½ hour intervals for 6 hours This blood was sent off to a laboratory at the Royal Melbourne Institute of Technology for analysis of blood alphadolone levels. It can be seen from Example 5 that no measurable alphadolone was found in the blood of these patients who were reporting useful analgesia with decreased morphine requirements. […] These experiments mean that very little or no free alphadolone was present in these patient's blood, but large quantities of alphadolone was present as the glucuronide metabolite. This evidence supports further our claim that the analgesic effects of alphadolone and alphadolone acetate given by oral and intraperitoneal routes involves activity of metabolites in general and the glucuronide in particular.
All patients had 10 ml of blood taken from a vein immediately prior to the capsule administration and also 30 minutes, one hour, 1½ hours, 2 hours, 3 hours, 4 hours and 6 hours after capsule administration. The blood was placed in heparinised tubes, centrifuged and the plasma decanted for later analysis of blood alphadolone levels by the Key Centre for Applied and Nutritional Toxicology, Royal Melbourne Institute of Technology.
No alphadolone was detected in the plasma. The lower limit of detection was 50 ng/ml. […] In 5 of these patients the metabolite was detected in the first sample taken after the alphadolone capsule had been given.

[5] = up to six hours after capsule, 100, 250 and 500 mg orally, n = 7
[6] = plasma treated with glucuronidase, 250 mg, 5 patients, 500 mg, one patient

## CC(=O)OCC(=O)[C@H]1CC[C@H]2[C@@H]3CC[C@H]4C[C@H](O)CC[C@]4(C)[C@H]3C(=O)C[C@]12C [alphadolone, 21-acetoxy-3alpha-hydroxy-5alpha-pregnane-11,20-dione]
[1]; 750 mg per kg intragastric, suspended in saline, five rats, cross-over vs vehicle
  electrical current threshold in the skin of the tail and the neck: sharp rise in the electrical current threshold
[1]; 750 mg per kg intragastric, five rats
  sedation (observation of the animals): no animals seemed to be sedated in any form whatsoever
[1]; given intragastrically to rats
  antinociception (pain relief): powerful antinociception
[1]; range of doses intragastrically to rats
  sedation: no sedation, even at very large doses
[2]; 0.1 to 100 mg/kg intraperitoneally, rats
  dose response of antinociceptive effect (electrical current in the tail): dose-related increase in antinociceptive effect
[2]; ip, Saffan 2 ml/kg, alphaxalone 18 mg/kg, alphadolone 6 mg/kg, groups of 10 rats
  antinociceptive effects in the electrical current threshold test measured in the tail: all of the antinociceptive effects of the Saffan mixture could be achieved with alphadolone alone
[3]; 250 mg and 500 mg given orally
  morphine requirement and pain relief after major knee surgery: reduced the morphine requirement for pain relief after major knee surgery and at the same time improved the pain relief
[3]; (3.62÷12.42)×100% vs placebo
  morphine sparing over six hours: 29.1%
[3]; PCA morphine, alphadolone treated patients (placebo 12.42 mg)
  mean morphine usage during the six-hour period after capsule ingestion: 8.8 mg
[3]; VAS after capsule as ratio of pre-capsule readings, six hours, 100, 250 and 500 mg orally
  Standardised VAS scores; Mann-Whitney U-Test, Mean rank: 82.85
[3]; between one and six hours after capsule
  morphine consumption from the PCA machine vs total range of placebo patients: fell outside the total range of morphine used by placebo treated patients
[3]; n = 7 vs placebo n = 5, p=0.006
  verbal rating pain scores compared with placebo (chi squared test): significantly lower pain scores
[3]; n = 7 vs placebo n = 5, p=0.0117
  standardised visual analogue scores compared with placebo (Mann-Whitney U-test): significantly lower standadised visual analogue scores
[3]; p=0.0153, p=0.00651 with 3 and 4 mg cells combined
  morphine usage compared with placebo (chi-square): use less than placebo treated patients
[3]; six hours after capsule, n = 7
  Morphine doses in half-hour periods: 0 mg, frequency: 39
  Morphine doses in half-hour periods: 1 mg, frequency: 29
  Morphine doses in half-hour periods: 2 mg, frequency: 15
  Morphine doses in half-hour periods: 3 mg, frequency: 1
  Morphine doses in half-hour periods: 4 mg, frequency: 0
[3]; six hours after capsule, single patients at 25, 50 and 100 mg orally
  morphine usage with increasing alphadolone dose: progressive reduction in morphine usage
[3]; six hours after capsule
  morphine consumption from the PCA machine vs total range of placebo patients: fell outside the total range of the morphine consumption of placebo treated patients
[3]; [5]
  Verbal rating scales for pain: Mild, frequency: 53
  Verbal rating scales for pain: Moderate, frequency: 20
  Verbal rating scales for pain: No pain, frequency: 6
  Verbal rating scales for pain: Severe, frequency: 4
[4]; oral capsule, samples up to 6 hours, without glucuronidase treatment
  alphadolone in plasma (lower limit of detection): < 50 ng/mL
[4]; [6]
  alphadolone metabolite (glucuronide) in plasma: microgram/ml concentrations
  alphadolone metabolite in plasma at the 6 hour sampling time point: still present, although decaying

Source: US6787530B1, “Use of pregnane-diones as analgesic agents” (priority 1996, dated 2004)
